# Measurements published in ChEMBL document CHEMBL1201861, “Genomics of Drug Sensitity in Cancer screening data, Wellcome Trust Sanger Institute”.
# Experiments:
# Experiment in all cases: cells
# COR-L23 = type: functional, cell-based; conditions: Homo sapiens;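 further: cell viability assay measuring how strongly compounds suppress growth of COR-L23 cells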
# Description: SANGER: Inhibition of human COR-L23 cell growth in a cell viability assay.
# CP50-MEL-B = type: functional, cell-based; conditions: Homo sapiens;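 further: growth inhibition of the human cell line, measured with a cell viability read-out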
# Description: SANGER: Inhibition of human CP50-MEL-B cell growth in a cell viability assay.
# Ca-Ski = type: functional, cell-based; conditions: Homo sapiens;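 further: cell viability assay measuring inhibition of Ca-Ski cell growth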
# Description: SANGER: Inhibition of human Ca-Ski cell growth in a cell viability assay.
# CaR-1 = type: functional, cell-based; conditions: Homo sapiens;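 further: growth inhibition of human CaR-1 cancer cells, read out with a cell viability assay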
# Description: SANGER: Inhibition of human CaR-1 cell growth in a cell viability assay.
# D-247MG = type: functional, cell-based; conditions: Homo sapiens
# Description: SANGER: Inhibition of human D-247MG cell growth in a cell viability assay.
# DOK = type: functional, cell-based; conditions: Homo sapiens;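 further: cell viability assay read-out, values reflect inhibition of cell growth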
# Description: SANGER: Inhibition of human DOK cell growth in a cell viability assay.
# FaDu = type: functional, cell-based; conditions: Homo sapiens;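 further: cell viability readout of growth inhibition in FaDu cells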
# Description: SANGER: Inhibition of human FADU cell growth in a cell viability assay.
# GCT = type: functional, cell-based; conditions: Homo sapiens;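 further: GCT cell line proliferation inhibition, read out with a cell viability assay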
# Description: SANGER: Inhibition of human GCT cell growth in a cell viability assay.
# KYSE-520 cell line = type: functional, cell-based; conditions: Homo sapiens;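 further: growth inhibition of human KYSE-520 cells, read out with a viability assay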
# Description: SANGER: Inhibition of human KYSE-520 cell growth in a cell viability assay.
# KYSE-70 cell line = type: functional, cell-based; conditions: Homo sapiens;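 further: cell viability assay read-out, with IC50 expressing suppression of KYSE-70 cell growth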
# Description: SANGER: Inhibition of human KYSE-70 cell growth in a cell viability assay.
# LK-2 = type: functional, cell-based; conditions: Homo sapiens;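 further: growth inhibition of LK-2 cells, read out with a viability assay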
# Description: SANGER: Inhibition of human LK-2 cell growth in a cell viability assay.
# MCF7 = type: functional, cell-based; conditions: Homo sapiens;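 further: growth inhibition of human MCF7 cells, read out with a cell viability assay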
# Description: SANGER: Inhibition of human MCF7 cell growth in a cell viability assay.
# MDA-MB-157 = type: functional, cell-based; conditions: Homo sapiens
# Description: SANGER: Inhibition of human MDA-MB-157 cell growth in a cell viability assay.
# MDA-MB-175-VII = type: functional, cell-based; conditions: Homo sapiens
# MDA-MB-361 = type: functional, cell-based; conditions: Homo sapiens
# MIA PaCa-2 = type: functional, cell-based; conditions: Homo sapiens;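 further: growth inhibition of MIA PaCa-2 cells, read out with a cell viability assay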
# Description: SANGER: Inhibition of human MIA-PaCa-2 cell growth in a cell viability assay.
# NCI-H1793 = type: functional, cell-based; conditions: Homo sapiens;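 further: cell growth inhibition, read out by a cell viability assay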
# Description: SANGER: Inhibition of human NCI-H1793 cell growth in a cell viability assay.
# NCI-H2052 = type: functional, cell-based; conditions: Homo sapiens;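 further: growth inhibition of NCI-H2052 cells, read out with a cell viability assay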
# Description: SANGER: Inhibition of human NCI-H2052 cell growth in a cell viability assay.
# NCI-H2122 = type: functional, cell-based; conditions: Homo sapiens;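 further: growth inhibition of the cells, read out with a cell viability assay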
# Description: SANGER: Inhibition of human NCI-H2122 cell growth in a cell viability assay.
# NCI-N87 = type: functional, cell-based; conditions: Homo sapiens;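 further: growth inhibition of human NCI-N87 cells, read out with a cell viability assay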
# Description: SANGER: Inhibition of human NCI-N87 cell growth in a cell viability assay.
# NUGC-3 = type: functional, cell-based; conditions: Homo sapiens;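 further: growth inhibition of human NUGC-3 cells, read out with a cell viability assay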
# Description: SANGER: Inhibition of human NUGC-3 cell growth in a cell viability assay.
# OAW-42 = type: functional, cell-based; conditions: Homo sapiens;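 further: growth inhibition of OAW-42 cells, read out with a cell viability assay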
# Description: SANGER: Inhibition of human OAW-42 cell growth in a cell viability assay.
# OVCAR-5 = type: functional, cell-based; conditions: Homo sapiens;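 further: growth inhibition of human OVCAR-5 cells, read out with a cell viability assay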
# Description: SANGER: Inhibition of human OVCAR-5 cell growth in a cell viability assay.
# PA-1 = type: functional, cell-based; conditions: Homo sapiens;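 further: IC50 for suppression of PA-1 cell proliferation, determined with a cell viability read-out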
# Description: SANGER: Inhibition of human PA-1 cell growth in a cell viability assay.
# PANC-03-27 = type: functional, cell-based; conditions: Homo sapiens
# Description: SANGER: Inhibition of human PANC-03-27 cell growth in a cell viability assay.
# RD = type: functional, cell-based; conditions: Homo sapiens
# Description: SANGER: Inhibition of human RD cell growth in a cell viability assay.
# RERF-LC-MS = type: functional, cell-based; conditions: Homo sapiens;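 further: growth inhibition of human RERF-LC-MS cells, read out by a cell viability assay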
# Description: SANGER: Inhibition of human RERF-LC-MS cell growth in a cell viability assay.
# RPMI-2650 = type: functional, cell-based; conditions: Homo sapiens
# Description: SANGER: Inhibition of human RPMI-2650 cell growth in a cell viability assay.
# SF-295 = type: functional, cell-based; conditions: Homo sapiens;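 further: growth inhibition of SF-295 cells, read out with a cell viability assay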
# Description: SANGER: Inhibition of human SF295 cell growth in a cell viability assay.
# SKG-IIIa = type: functional, cell-based; conditions: Homo sapiens;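 further: cell growth inhibition, read out with a cell viability assay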
# Description: SANGER: Inhibition of human SKG-IIIa cell growth in a cell viability assay.
# SW1710 = type: functional, cell-based; conditions: Homo sapiens;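 further: growth inhibition of SW1710 cells, determined with a cell viability assay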
# Description: SANGER: Inhibition of human SW1710 cell growth in a cell viability assay.
# SW-620 = type: functional, cell-based; conditions: Homo sapiens;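 further: growth inhibition of human SW-620 cells, measured by a cell viability assay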
# Description: SANGER: Inhibition of human SW620 cell growth in a cell viability assay.
# SW626 = type: functional, cell-based; conditions: Homo sapiens;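 further: growth inhibition of SW626 cells, measured with a cell viability assay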
# Description: SANGER: Inhibition of human SW626 cell growth in a cell viability assay.
# T84 = type: functional, cell-based; conditions: Homo sapiens;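 further: growth inhibition measured with a cell viability readout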
# Description: SANGER: Inhibition of human T84 cell growth in a cell viability assay.
# CWR22R = type: functional, cell-based; conditions: Homo sapiens, 22Rv1;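 further: growth inhibition of 22Rv1 cells, read out with a cell viability assay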
# Description: SANGER: Inhibition of human 22RV1 cell growth in a cell viability assay.
# 5637 = type: functional, cell-based; conditions: Homo sapiens
# Description: SANGER: Inhibition of human 5637 cell growth in a cell viability assay.
# 769-P = type: functional, cell-based; conditions: Homo sapiens
# Description: SANGER: Inhibition of human 769-P cell growth in a cell viability assay.
# 8305C = type: functional, cell-based; conditions: Homo sapiens
# Description: SANGER: Inhibition of human 8305C cell growth in a cell viability assay.
# 8505C = type: functional, cell-based; conditions: Homo sapiens
# Description: SANGER: Inhibition of human 8505C cell growth in a cell viability assay.
# BPH-1 = type: functional, cell-based; conditions: Homo sapiens;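 further: cell viability assay measuring growth inhibition of human BPH-1 cells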
# Description: SANGER: Inhibition of human BPH-1 cell growth in a cell viability assay.
# BXPC-3 = type: functional, cell-based; conditions: Homo sapiens;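 further: growth inhibition of human BxPC-3 cells, read out by a cell viability assay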
# Description: SANGER: Inhibition of human BxPC-3 cell growth in a cell viability assay.
# C32 = type: functional, cell-based; conditions: Homo sapiens;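 further: cell viability assay, with IC50 reflecting inhibition of C32 cell growth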
# Description: SANGER: Inhibition of human C32 cell growth in a cell viability assay.
# CAKI-1 = type: functional, cell-based; conditions: Homo sapiens;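 further: growth inhibition of CAKI-1 cells, measured by a cell viability assay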
# Description: SANGER: Inhibition of human CAKI-1 cell growth in a cell viability assay.
# CAL-12T = type: functional, cell-based, Homo sapiens; conditions: Homo sapiens, CAL-12T;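 further: growth inhibition of human CAL-12T cells, read out with a cell viability assay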
# Description: SANGER: Inhibition of human CAL-12T cell growth in a cell viability assay.
# TGW = type: functional, cell-based; conditions: Homo sapiens;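 further: growth inhibition of human TGW cells, read out with a cell viability assay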
# Description: SANGER: Inhibition of human TGW cell growth in a cell viability assay.
# UMC-11 = type: functional, cell-based; conditions: Homo sapiens;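 further: growth inhibition of UMC-11 cells, read out with a cell viability assay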
# Description: SANGER: Inhibition of human UMC-11 cell growth in a cell viability assay.
# MEL-JUSO = type: functional, cell-based; conditions: Homo sapiens;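 further: growth inhibition of human MEL-JUSO cells, read out with a cell viability assay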
# Description: SANGER: Inhibition of human MEL-JUSO cell growth in a cell viability assay.
# NCI-H2030 = type: functional, cell-based; conditions: Homo sapiens;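 further: growth inhibition of human NCI-H2030 cells, read out by a cell viability assay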
# Description: SANGER: Inhibition of human NCI-H2030 cell growth in a cell viability assay.
# SK-MEL-24 = type: functional, cell-based; conditions: Homo sapiens;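 further: growth inhibition read out by a cell viability assay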
# Description: SANGER: Inhibition of human SK-MEL-24 cell growth in a cell viability assay.
# SK-MEL-28 = type: functional, cell-based; conditions: Homo sapiens;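 further: growth inhibition of human SK-MEL-28 cells, read out with a cell viability assay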
# Description: SANGER: Inhibition of human SK-MEL-28 cell growth in a cell viability assay.
# A-375 = type: functional, cell-based; conditions: Homo sapiens;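 further: growth inhibition of A375 cells, read out with a cell viability assay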
# Description: SANGER: Inhibition of human A375 cell growth in a cell viability assay.
structure (smiles),measurement,setting,value
CC(=O)c1c(C)c2cnc(Nc3ccc(N4CCNCC4)cn3)nc2n(C2CCCC2)c1=O [PALBOCICLIB],IC50,COR-L23,1230 nM
same,IC50,CP50-MEL-B,> 4000 nM
same,IC50,Ca-Ski,> 4000 nM
same,IC50,CaR-1,> 4000 nM
same,IC50,D-247MG,> 4000 nM
same,IC50,DOK,> 4000 nM
same,IC50,FaDu,> 4000 nM
same,IC50,GCT,> 4000 nM
same,IC50,KYSE-520 cell line,> 4000 nM
same,IC50,KYSE-70 cell line,> 4000 nM
same,IC50,LK-2,> 4000 nM
same,IC50,MCF7,2710 nM
same,IC50,MDA-MB-157,> 4000 nM
same,IC50,MDA-MB-175-VII,> 4000 nM
same,IC50,MDA-MB-361,> 4000 nM
same,IC50,MIA PaCa-2,2360 nM
same,IC50,NCI-H1793,> 4000 nM
same,IC50,NCI-H2052,> 4000 nM
same,IC50,NCI-H2122,> 4000 nM
same,IC50,NCI-N87,> 4000 nM
same,IC50,NUGC-3,2830 nM
same,IC50,OAW-42,> 4000 nM
same,IC50,OVCAR-5,900 nM
same,IC50,PA-1,510 nM
same,IC50,PANC-03-27,> 4000 nM
same,IC50,RD,> 4000 nM
same,IC50,RERF-LC-MS,> 4000 nM
same,IC50,RPMI-2650,> 4000 nM
same,IC50,SF-295,> 4000 nM
same,IC50,SKG-IIIa,> 4000 nM
same,IC50,SW1710,2070 nM
same,IC50,SW-620,2260 nM
same,IC50,SW626,> 4000 nM
same,IC50,T84,> 4000 nM
same,IC50,CWR22R,1680 nM
same,IC50,5637,> 4000 nM
same,IC50,769-P,> 4000 nM
same,IC50,8305C,> 4000 nM
same,IC50,8505C,> 4000 nM
same,IC50,BPH-1,> 4000 nM
same,IC50,BXPC-3,> 4000 nM
same,IC50,C32,> 4000 nM
same,IC50,CAKI-1,> 4000 nM
same,IC50,CAL-12T,> 4000 nM
same,IC50,TGW,1120 nM
same,IC50,UMC-11,> 4000 nM
CCCS(=O)(=O)Nc1ccc(F)c(C(=O)c2c[nH]c3ncc(Cl)cc23)c1F [PLX-4720],IC50,COR-L23,> 10000 nM
same,IC50,CP50-MEL-B,298 nM
same,IC50,Ca-Ski,> 10000 nM
same,IC50,CaR-1,> 10000 nM
same,IC50,D-247MG,> 10000 nM
same,IC50,DOK,> 10000 nM
same,IC50,FaDu,> 10000 nM
same,IC50,GCT,8750 nM
same,IC50,KYSE-520 cell line,> 10000 nM
same,IC50,KYSE-70 cell line,> 10000 nM
same,IC50,LK-2,> 10000 nM
same,IC50,MCF7,> 10000 nM
same,IC50,MDA-MB-157,> 10000 nM
same,IC50,MDA-MB-175-VII,> 10000 nM
same,IC50,MDA-MB-361,> 10000 nM
same,IC50,MEL-JUSO,> 10000 nM
same,IC50,MIA PaCa-2,> 10000 nM
same,IC50,NCI-H1793,> 10000 nM
same,IC50,NCI-H2030,> 10000 nM
same,IC50,NCI-H2052,> 10000 nM
same,IC50,NCI-H2122,> 10000 nM
same,IC50,NCI-N87,> 10000 nM
same,IC50,NUGC-3,> 10000 nM
same,IC50,OAW-42,> 10000 nM
same,IC50,OVCAR-5,> 10000 nM
same,IC50,PA-1,2730 nM
same,IC50,PANC-03-27,> 10000 nM
same,IC50,RD,> 10000 nM
same,IC50,RERF-LC-MS,> 10000 nM
same,IC50,RPMI-2650,> 10000 nM
same,IC50,SF-295,> 10000 nM
same,IC50,SK-MEL-24,> 10000 nM
same,IC50,SK-MEL-28,1050 nM
same,IC50,SKG-IIIa,> 10000 nM
same,IC50,SW1710,> 10000 nM
same,IC50,SW-620,> 10000 nM
same,IC50,SW626,> 10000 nM
same,IC50,T84,> 10000 nM
same,IC50,CWR22R,> 10000 nM
same,IC50,5637,> 10000 nM
same,IC50,769-P,> 10000 nM
same,IC50,8305C,5190 nM
same,IC50,8505C,> 10000 nM
same,IC50,A-375,674 nM
same,IC50,BPH-1,> 10000 nM
same,IC50,BXPC-3,> 10000 nM
same,IC50,C32,151 nM
same,IC50,CAKI-1,> 10000 nM
same,IC50,CAL-12T,> 10000 nM
same,IC50,TGW,> 10000 nM
same,IC50,UMC-11,> 10000 nM
Cn1c(=O)n(-c2ccc(C(C)(C)C#N)cc2)c2c3cc(-c4cnc5ccccc5c4)ccc3ncc21 [DACTOLISIB],IC50,COR-L23,49.2 nM
same,IC50,CP50-MEL-B,77.4 nM
same,IC50,Ca-Ski,156 nM
same,IC50,CaR-1,68.2 nM
same,IC50,D-247MG,135 nM
same,IC50,DOK,56 nM
same,IC50,FaDu,267 nM
same,IC50,GCT,13.7 nM
same,IC50,KYSE-520 cell line,253 nM
same,IC50,KYSE-70 cell line,152 nM
same,IC50,LK-2,77.1 nM
same,IC50,MCF7,48.6 nM
same,IC50,MDA-MB-157,35.4 nM
same,IC50,MDA-MB-175-VII,39.5 nM
same,IC50,MDA-MB-361,61 nM
same,IC50,MIA PaCa-2,84.5 nM
same,IC50,NCI-H1793,12.8 nM
same,IC50,NCI-H2030,21.5 nM
same,IC50,NCI-H2052,175 nM
same,IC50,NCI-H2122,201 nM
same,IC50,NCI-N87,111 nM
same,IC50,NUGC-3,16.3 nM
same,IC50,OAW-42,73.4 nM
same,IC50,OVCAR-5,35.5 nM
same,IC50,PA-1,11.8 nM
same,IC50,PANC-03-27,76.3 nM
same,IC50,RD,75.9 nM
same,IC50,RERF-LC-MS,124 nM
same,IC50,RPMI-2650,52.7 nM
same,IC50,SF-295,18.9 nM
same,IC50,SK-MEL-24,517 nM
same,IC50,SK-MEL-28,112 nM
same,IC50,SKG-IIIa,129 nM
same,IC50,SW1710,18.7 nM
same,IC50,SW-620,50.4 nM
same,IC50,SW626,176 nM
same,IC50,T84,> 2000 nM
same,IC50,CWR22R,49.1 nM
same,IC50,5637,79.2 nM
same,IC50,769-P,10.4 nM
same,IC50,8305C,41.9 nM
same,IC50,8505C,37.5 nM
same,IC50,A-375,23.9 nM
same,IC50,BPH-1,4.76 nM
same,IC50,BXPC-3,81.5 nM
same,IC50,C32,53.8 nM
same,IC50,CAKI-1,36.4 nM
same,IC50,CAL-12T,38.6 nM
same,IC50,TGW,760 nM
same,IC50,UMC-11,458 nM
